Where two headings read alike, the source gives them in different places.
Experiments:
[1] = tested on: MCF7 cells (with/without FKBP12 V55G-HA; mTOR F2108L); assay: Cell growth by CellTiter-Glo in MCF7 cells; assay type: cell-based, human; details: 72 h treatment
Method: All cell lines were maintained in DMEM (Gibco) supplemented with 10% heat-inactivated FBS (Axenia Biologix) at 37 °C in 5% CO2. Flp-In T-REx 293 cells were obtained from Thermo Fisher supplemented with 15 µg/mL blasticin and 100 µg/mL Zeocin. Flp-In T-REx 293 FKBP12 V55G cells were supplemented with 15 µg/mL blasticin and 150 µg/mL hygromycin B. FKBP12 V55G expression was induced with 1 µg/mL doxycycline 24 h prior to drug treatments. MCF7 cells were obtained from ATCC (American Type Culture Collection), and MCF7 mTOR F2108L cells were described previously ([30]). When indicated, cells were treated with drugs at 60–80% confluency at a final DMSO concentration of 0.1%. At the end of the treatment period, cells were placed on ice and washed once with PBS. […] Lysate concentration was determined by Bradford assay (Thermo Fisher) and adjusted to 2 mg/mL with additional RIPA buffer. […]
Cells were seeded into 96-well tissue-culture treated plates (Greiner) and were allowed to incubate for 24 h. […] Cell viability was assessed by CellTiter-Glo (Promega). […] Luminescence was measured on a Tecan Spark 20M. […]
Human FKBP12 coding sequence was cloned a pET-47b bacterial expression vector using Gibson assembly and a C-terminal HA-tag was added by QuickChange PCR. FKBP12 proteins were expressed as 8xHis fusions in E. coli BL21 (DE3) cells. […]

[2] = tested on: mTOR signaling in Flp-In T-REx 293 cells; assay: mTOR signaling by Western blot in parental (wild-type) Flp-In 293 cells; assay type: cell-based, human; details: for IC50: Homo sapiens, 24 h treatment, wild-type 293 cells
Method: All cell lines were maintained in DMEM (Gibco) supplemented with 10% heat-inactivated FBS (Axenia Biologix) at 37 °C in 5% CO2. Flp-In T-REx 293 cells were obtained from Thermo Fisher supplemented with 15 µg/mL blasticin and 100 µg/mL Zeocin. Flp-In T-REx 293 FKBP12 V55G cells were supplemented with 15 µg/mL blasticin and 150 µg/mL hygromycin B. FKBP12 V55G expression was induced with 1 µg/mL doxycycline 24 h prior to drug treatments. MCF7 cells were obtained from ATCC (American Type Culture Collection), and MCF7 mTOR F2108L cells were described previously ([30]). When indicated, cells were treated with drugs at 60–80% confluency at a final DMSO concentration of 0.1%. At the end of the treatment period, cells were placed on ice and washed once with PBS. Cells were scraped with a spatula and lysed in radioimmunoprecipitation assay (RIPA) buffer supplemented with protease and phosphatase inhibitors (cOmplete and phosSTOP, Roche) on ice for 5 min. Lysates were clarified by high-speed centrifugation. Lysate concentration was determined by Bradford assay (Thermo Fisher) and adjusted to 2 mg/mL with additional RIPA buffer. Samples were mixed with 5x SDS loading dye and heated at 95 °C for 5 min.
SDS-PAGE was run with Novex 4–12% Bis-Tris gel (Invitrogen) in MOPS running buffer at 200V for 40 min. Samples were loaded at 20 µg lysate per lane. […] Following three 5 min. washes with TBST, membranes were imaged on a Li-COR Odyssey fluorescence imager. […] Blot quantification was performed in Fiji, and data were graphed and fit in Prism 9 (GraphPad). […] For detection of phosphorylated and total protein, primary antibodies for phospho-Akt/Akt, phospho-S6K/S6K, or phospho-S6/S6 were combined and detected using a mixture of species-specific secondary antibodies with orthogonal fluorescence to allow simultaneous detection of phosphorylated and total protein from a single membrane, or membrane was stripped (Cell Signaling Technology) after detection of phosphorylated protein and then reblocked and reprobed with primary antibody for total protein.

CCO/N=C1/C[C@@H]([C@H](C)C[C@@H]2CC[C@@H](O)[C@H](OC)C2)OC(=O)[C@@H]2CCCCN2C(=O)C(=O)[C@]2(O)O[C@@H](CC[C@H]2C)C[C@H](OC)/C(C)=C/C=C/C=C/[C@@H](C)C[C@@H](C)C(=O)[C@H](OC)[C@H](O)/C(C)=C/[C@H]1C [Rapa*-3Z]
Cell growth inhibition, MCF7 cells with and without FKBP12 V55G ([1]; CellTiter-Glo): activity was restricted to the mutant FKBP12-expressing cells
Cell growth, MCF7 mTOR F2108L cells ([1]; rapamycin resistance mutation): had no effect on the growth of these cells
mTOR signaling in wild-type 293 cells ([2]; 10 nM, time course): unaffected
IC50 ([2]; read-out: IC50 phospho-S6): 121 nM
IC50 ([2]; read-out: IC50 phospho-S6K): 76 nM

— article PMC9499525, “Tissue-restricted inhibition of mTOR using chemical genetics” (Proceedings of the National Academy of Sciences of the …, 2022)
